According to article PMC12606464, “Investigating NFE2L1 activators for targeted protein aggregate clearance: a follow-up study” (RSC Medicinal Chemistry, 2025):

What was measured:
[1] = tested on: NFE2L1 pathway; assay: 3×PSMA4-ARE-LUC dual luciferase reporter assay in HEK293 cells; format: cell-based, human; conditions: Homo sapiens; 5 μM, 16 h, HEK293, luminescence relative to DMSO-treated cells; read-out: NFE2L1 activation [5 μM]
Text: In our previous work,[43] we developed a library of NFE2L1 stimulators using a cell-based luciferase reporter assay. This system was based on three tandem copies of the antioxidant response element (ARE) derived from the NFE2L1 target gene proteasome subunit alpha type-4 (3xPSMA4, PSMA4-ARE-LUC). It was designed to detect the proteasome “bounce-back” response induced by proteasome inhibitors such as MG132 or bortezomib.[22,43,45,46] The reporter assay was adapted to a 384-well format and used to evaluate a new set of RUN compounds designed around the structural framework of the RUN-47 activator. We focused on identifying compounds that increased the 3×PSMA4-ARE-LUC signal (Fig. 1A), while simultaneously assessing cytotoxicity (see the SI, Fig. S2). […] In contrast, thiourea- and urea-containing derivatives generally produced only weak to intermediate responses, rarely exceeding a fold change of 7.
(§1) Fig. 1 (A) Targeted library screening of RUN compounds using the 3×PSMA4-ARE-LUC dual reporter assay in HEK293 cells. Cells were exposed to RUN compounds (5 μM) for 16 hours, and luciferase activity was measured. Data are presented as the mean ± SD from three independent experiments (n = 3). Results are shown as a fold change in luminescence relative to DMSO-treated cells. Selected hit compounds are highlighted in distinct colours. (B) RUN-89 specifically activates the NFE2L1 pathway. The DDI2 knockout (KO) and parental (WT) HCT116 cells were transfected with the 3×PSMA4-ARE-LUC reporter and treated with 0.5 μM bortezomib (BTZ) and 5 μM RUN-89 for 16 hours. Data are presented as the Geomean ± GeoSD of three independent experiments (n = 3). Statistical analysis was performed on log2-transformed values using two-way repeated-measures ANOVA followed by Šídak's multiple comparison test. (C) RUN-89 selectively triggers downstream signaling events associated with NFE2L1 gene expression. HEK293 cells were transfected with lipid nanoparticles (LNPs) carrying siRNAs targeting NFE2L1 or NFE2L2. LNPs formulated with non-targeting siRNA served as a negative control. Following 24 hours of incubation, cells were treated with 7.5 μM RUN-89 or DMSO (vehicle) for an additional 16 hours. Expression of the proteasomal subunit gene PSMC4 was then quantified by RT-qPCR. Data are shown as the Geomean ± GeoSD from three independent biological replicates (n = 3). Log2-transformed data were analyzed using two-way repeated-measures ANOVA with the Geisser–Greenhouse correction, followed by Tukey's multiple comparison test with individual variances computed for each comparison. Additional results for NFE2L1, NFE2L2, PSMB7, and PSMD12 are presented in SI Fig. S10.
Figure S1: Concentration–response of luciferase cell-based assay (PSMA4-ARE-luc2P reporter) on treatment with RUN-81, RUN-89, and RUN-94. Concentration is plotted on the X-axis. Dose–response relationships were analyzed using a four-parameter logistic curve (4PL), or a bell-shaped dose-response curve, both with weighting 1/Y^2. Dotted lines represent 95% confidence bands. Calculated EC₅₀ values, curve parameters, and asymmetrical confidence intervals are summarized in the accompanying table . Data are presented as mean ± SD from four independent experiments (n=4).
(§2) 2 Biology Experimental Procedures
(§3) Safety statement: No unexpected or unusually high safety hazards were encountered. […]
Most of the cell lines were cultured in Dulbecco's Modified Eagle Medium (DMEM) enriched with 10% fetal bovine serum (FBS) and 2 mM L-glutamine, under standard conditions of 37 °C with 5% CO₂. DNA transfection was performed with Lipofectamine 2000, following the manufacturer's instructions. Transgenic cells were then selected with either G418 (400 µg/mL) or hygromycin B (450 µg/mL), based on the selection marker encoded by the plasmid used. Cell viability was evaluated using the […]

[2] = tested on: HEK293 cells; assay: alamarBlue cytotoxicity assessment in HEK293 cells; format: cell-based, human; conditions: HEK293, alamarBlue, 16 h; concentration not given
Description: Figure S2: Concentration-dependent cytotoxicity assessment of RUN compounds.
HEK293 cells were treated for 16 hours with increasing concentrations of RUN compounds (1.25 µM; 2.5 µM; 5; 7.5 and 10 µM) or DMSO (negative control). Cell viability was determined using the alamarBlue assay following the protocol of Riss.(1) Data are presented as means ± SD from three independent experiments (n = 3). Statistical analysis was done using repeated measures one-way ANOVA with Geisser–Greenhouse correction, followed by Dunnett’s multiple comparisons test. *p<0.05. Detailed results of the analysis are shown in […]
(1 picture or pasted object on this page, not shown here)
as §2, §3
(§4) Cell lines were sourced from the ATCC (USA) and/or ECACC (UK), namely HCT116 (human colorectal carcinoma), ATCC CCL-247 (RRID:CVCL_0291), HEK-293 (human embryonic kidney), ATCC CRL-1573 (RRID:CVCL_0045), SH-SY5Y (human neuroblastoma), ATCC CRL-2266 (RRID:CVCL_0019). The characteristics of DDI2 knockout cells derived from HCT116 cells have been described previously (Sedlacek et al., 2025). All cell lines were tested for mycoplasma contamination. Most of the cell lines were cultured in Dulbecco's Modified Eagle Medium (DMEM) enriched with 10% fetal bovine serum (FBS) and 2 mM L-glutamine, under standard conditions of 37 °C with 5% CO₂. DNA transfection was performed with Lipofectamine 2000, following the manufacturer's instructions. Transgenic cells were then selected with either G418 (400 µg/mL) or hygromycin B (450 µg/mL), based on the selection marker encoded by the plasmid used. […]

[3] = tested on: NFE2L1 pathway; assay: 3×PSMA4-ARE-LUC reporter with or without N-acetyl-L-cysteine (NAC); format: cell-based, human; conditions: HEK293, 5 μM, 16 h
Text: We next examined whether the selected RUN compounds activate the NFE2L1 pathway in a stress-independent manner, while preserving normal ubiquitin-dependent proteasomal degradation. This distinction is crucial, as the therapeutic benefit of NFE2L1 activation lies in its ability to alleviate proteotoxic stress and target disease-related proteins for degradation without compromising normal proteostasis. To assess this, U2OS cells stably expressing the short-lived fluorescent reporter Ub-G76V-GFP were treated with various concentrations of RUN compounds. […] We also examined whether compound-induced activation of NFE2L1 could be attributed to the generation of reactive oxygen species (ROS). To test this, the 3×PSMA4-ARE-LUC reporter assay was performed in the presence or absence of the antioxidant N-acetyl-L-cysteine (NAC). A decrease in reporter activity upon NAC treatment would indicate pathway activation through oxidative stress. […]
To determine whether RUN compounds activate the NFE2L1 pathway via reactive oxygen species (ROS) generation or through Keap1-NRF2 pathway crosstalk, we used the 3xPSMA4-ARE-LUC dual reporter assay in HEK293 cells. […] A reduction in luminescence signal upon NAC co-treatment would indicate that the compound activates the reporter via ROS-mediated mechanism or Keap1-NRF2-dependent oxidative/electrophilic stress. […]

[4] = tested on: ubiquitin-proteasome system; assay: Ub-G76V-GFP reporter degradation in U2OS cells; format: cell-based
Text: We next examined whether the selected RUN compounds activate the NFE2L1 pathway in a stress-independent manner, while preserving normal ubiquitin-dependent proteasomal degradation. This distinction is crucial, as the therapeutic benefit of NFE2L1 activation lies in its ability to alleviate proteotoxic stress and target disease-related proteins for degradation without compromising normal proteostasis. To assess this, U2OS cells stably expressing the short-lived fluorescent reporter Ub-G76V-GFP were treated with various concentrations of RUN compounds. […] We also examined whether compound-induced activation of NFE2L1 could be attributed to the generation of reactive oxygen species (ROS). To test this, the 3×PSMA4-ARE-LUC reporter assay was performed in the presence or absence of the antioxidant N-acetyl-L-cysteine (NAC). A decrease in reporter activity upon NAC treatment would indicate pathway activation through oxidative stress.
RUN compound (5 µM) for 8 hours. Fluorescence intensity was normalized to cell viability (measured by the alamarBlue assay) and compared to vehicle control (DMSO). Unlike the […]
as means ± SD from three independent experiments (n = 3). Statistical analysis was performed using a multiple unpaired t-test with Welch’s correction, with adjustment for multiple comparisons by the Holm–Šídák method (α = 0.05). ****p<0.0001. Detailed results of the analysis are shown in Supplementary Table S14. […]
2.4 Monitoring protein degradation using UbG76V-GFP reporter cells
U2OS cells stably expressing the Ub-G76V-GFP reporter were seeded into 96-well plates at and cultured overnight under standard conditions. On the following day, cells were treated with the indicated test compounds or DMSO vehicle control for 8 hours. After treatment, GFP fluorescence intensity was measured, providing a readout of proteasome-dependent degradation of the Ub-G76V-GFP substrate. Cell viability was then assessed in the same wells using the alamarBlue assay according to the manufacturer’s protocol. Viability values were used for normalization of fluorescence data to account for differences in cell number. Accumulation of GFP signal relative to DMSO-treated controls was interpreted as reduced degradation of UPS substrates, indicating potential effects of the compounds on the natural protein turnover.
Statistical comparison of RUN compounds with ASC-JM17 was performed using a multiple unpaired t-test with Welch’s correction, with adjustment for multiple comparisons by the Holm–Šídák method (α = 0.05) in GraphPad Prism (v 10.6.1). […]
RNA was extracted using […]
the RNeasy® Plus Micro Kit according to the manufacturer’s instructions. Complementary DNA (cDNA) was synthesized from RNA using either t he TATAA GrandScript cDNA Supermix (TATAA Biocenter) or the QuantiTect® Reverse Transcription Kit (Qiagen), following the respective protocols. Quantitative RT -PCR was performed on a LightCycler® 480 instrument (Roche Life Science) using the TATAA SYBR® Gr andMaster® Mix (TATAA […]
Biocenter). Gene expression levels were normalized to RPLP0, and relative expression was calculated using the ΔΔCt method. Data were expressed as fold change relative to the corresponding DMSO control. Statistical analysis of changes in gene expression was performed w ith a ratio paired t-test corrected for multiple comparisons using Holm-Šídák's method (α = 0.05) in GraphPad Prism (v 10.6.1).
Table S1. Sequences of primer pairs used in the qRT -PCR analysis of gene expression.

[5] = tested on: NFE2L1 pathway (DDI2-dependent) in HCT116 cells; assay: 3×PSMA4-ARE-LUC reporter in HCT116 WT and DDI2 knockout cells; format: cell-based, human
Description: as §1
To clarify whether the representative compound RUN-89 activates the NFE2L1-specific luciferase reporter independently of the KEAP1–NFE2L2 pathway, we used the 3×PSMA4-ARE-LUC dual reporter in previously published DDI2 knockout HCT116 cells (from ATCC CCL-247 (RRID:CVCL_0291)), in which the protease essential for NFE2L1 activation is disrupted. […] These findings indicate that RUN-89 activates the reporter construct through NFE2L1.
2 Biology Experimental Procedures […]
as §4, with “instructions.” for “instructions. Transgenic cells were then selected with either G418 (400 µg/mL) or hygromycin B (450 µg/mL), based on the selection marker encoded by the plasmid used.”
alamarBlue assay according to the standard protocol.(1)
2.3 Dual luciferase phenotypic assays
HEK293-derived cells stably expressing the 3×PSMA4-ARE-Luc reporter were maintained at low to mid passage numbers before use. For each experiment, cells were transiently transfected with the pRL-TK Renilla luciferase plasmid using Lipofectamine 2000.
Approximately 5–6 hours post-transfection, cells were seeded into plate format according to the experiment (384-well plate mostly). On the following day, cells were treated with the indicated test compounds or DMSO vehicle control for 16 hours (unless otherwise specified).
After treatment, cells were lysed and luciferase activities were quantified using the Dual-Luciferase® Reporter Assay System according to the manufacturer’s instructions and established protocols.(2, 3) For assays using the CMV-XBP-Gluc construct encoding Gaussia […]

## COc1ccc(/C=C2\CNC/C(=C\c3ccc(OC)c(OC)c3)C2=O)cc1OC [RUN-84]
[1]
  fold induction at 5 µM: 4
[2]
  Tox [% of ctrl.]: 73% of ctrl.
[3]
  NFE2L1 reporter activation in the presence of NAC: reduction in activation

## COc1ccc(/C=C/C(=O)C(CC2CCC2)C(=O)/C=C/c2ccc(OC)c(OC)c2)cc1OC [ASC-JM-17, reference compound]
[4]; U2OS cells, Fig. S3
  Ub-G76V-GFP reporter assay, mean: 4.073
[4]; U2OS, 5 μM, 8 h, versus DMSO
  Ub-G76V-GFP degradation (ubiquitin-proteasome system function): impaired proteasomal degradation

## CC(C)C[C@H](NC(=O)[C@H](Cc1ccccc1)NC(=O)c1cnccn1)B(O)O [BTZ, bortezomib, reference compound]
[5]; DDI2-/- clone KO 04, 0.5 μM BTZ or 5 μM RUN-89, 16 h, DMSO = 0
  Mean log2-transformed reporter fold change, HCT116 KO 04: 0.1712
[5]; DDI2-/- clone KO 11, 0.5 μM BTZ or 5 μM RUN-89, 16 h, DMSO = 0
  Mean log2-transformed reporter fold change, HCT116 KO 11: 0.1696
[5]; DDI2 knockout HCT116, in contrast to wild-type cells
  Reporter activity in DDI2-deficient cells: neither the proteasome inhibitor bortezomib nor RUN-89 induced reporter activity
[5]; WT (DDI2+/+), 0.5 μM BTZ or 5 μM RUN-89, 16 h, DMSO = 0
  Mean log2-transformed reporter fold change, HCT116 WT: 1.529
